The results in this text go back to patent US12240844B2 (Voronoi, Inc., priority 2019, dated 2025).

By IC50 is commonly meant the point on the concentration scale where inhibition reaches its midpoint.

What all share (assay type): biochemical
One assay concerns the target T1, human GST-CLK1 (129-end) (Homo sapiens, UniProt P49759).
T1 construct: purified human GST-CLK1 (129-end, Signalchem) enzyme; GST; purchased Signalchem
Description: GST-CLK1 enzyme inhibition, ADP-Glo kinase assay. Conditions: ATP 10 uM. Here is the method:
(§1) In order to evaluate the inhibitory activity of the compounds according to the present invention on LRRK2, LRRK2 (G2019S), DYRK1, CLK1 and TTK kinases, the following experiment was performed.
(§2) Example compounds were reacted with the purified human GST-CLK1 (129-end, Signalchem) enzyme to evaluate the enzyme inhibitory ability as follows. As the reaction buffer, the composition of 40 mM Tris-HCl pH 7.4, 20 mM MgCl2, 0.5 mg/mL BSA, and 50 uM DTT was used, and the reaction of all test materials was performed on the reaction buffer. During the test, the human GST-CLK1 (129-end, 3 ng) enzyme, the purified ATP (10 uM), and a specific substrate solution were reacted at 25° C. for 1 hour, and then the enzyme activity was identified using the in vitro ADP-Glo™ kinase assay (promega). Luminescence was measured by reacting the enzyme activity reaction solution, an ADP-Glo reaction solution and the enzyme potency detection solution in a ratio of 2:2:1. The degree of inhibition of enzyme activity according to the treatment concentrations of the respective compounds was calculated based on the fluorescence of the enzyme activity of a solvent control group that was not treated with the compound, where the concentration of each compound to inhibit enzyme activity inhibition by 50% was determined as an IC50 (nM) value. The IC50 of each compound was determined in triplicate data sets and obtained using Prism (version 7.01, GraphPad) software.
(§3) In the table below, the following designations were used for the evaluation of enzyme inhibitory ability.
A general note: In ADP-Glo the light output rises with the ADP produced.

For assay [1], the target named is T2, human GST-DYRK1A (full length) (Homo sapiens, UniProt Q13627).
T2 construct: purified human GST-DYRK1A (full length, Thermo scientifics) enzyme; GST; purchased Thermo scientifics
Nature of the assay: GST-DYRK1A enzyme inhibition, ADP-Glo kinase assay. Conditions: read-out: DYRK1 IC50. The protocol: as §1
as §2, with “GST-DYRK1A (full length, Thermo scientifics)” for “GST-CLK1 (129-end, Signalchem)”, “GST-DYRK1A (full length, 10” for “GST-CLK1 (129-end, 3”
as §3

A further assay has as its target LRRK2 (G2019S) (Homo sapiens, UniProt Q5S007, G2019S). Nature of the assay: LRRK2 G2019S enzyme inhibition, ADP-Glo kinase assay. The arrangement: purchased SignalChem L10-12GG. Here is the method: as §1
Example compounds were reacted with the purified human LRRK2 G2019S (L10-12GG, SignalChem) enzyme to evaluate the enzyme inhibitory ability as follows. The reaction buffer was used as the composition of 40 mM Tris-HCl pH7.4, 20 mM MgCl2, 0.5 mg/ml BSA and 50 μM DTT, and the reaction of all test materials was performed on the reaction buffer. The compound was diluted with 10 mM DMSO stock in 12 steps by a serial dilution method, and the enzyme activity was measured at the final compound concentrations of 50, 10, 2, 0.4, 0.08, 0.016, 0.0032, 0.00064, 0.000128, 0.0000256, 0.00000512 and 0.000001024 μM. In the test, the human LRRK2 G2019S (16 ng) enzyme was reacted with the purified ATP (25 μM) and an enzyme substrate (0.2 μg) at 25° C. for 2 hours, and then the enzyme activity was identified using the in vitro ADP-Glo™ kinase assay (promega). The enzyme activity reaction liquid, an ADP-Glo reaction liquid and an enzyme potency detection solution were reacted in a ratio of 2:2:1, and the degree of inhibition of enzyme activity was measured by Luminescence. The degree of inhibition of enzyme activity according to the treatment concentrations of the respective compounds was calculated based on the fluorescence of the enzyme activity of a solvent control group that was not treated with the compound, where the concentration of each compound to inhibit enzyme activity inhibition by 50% was determined as an IC50 (nM) value and obtained using Prism (Version 5.01, GraphPad) software.
as §3

A value given as a limit tells only on which side of the number the result lay.

LRRK2 (G2019S), sequence (Q5S007 970-2527 G2019S limits assumed): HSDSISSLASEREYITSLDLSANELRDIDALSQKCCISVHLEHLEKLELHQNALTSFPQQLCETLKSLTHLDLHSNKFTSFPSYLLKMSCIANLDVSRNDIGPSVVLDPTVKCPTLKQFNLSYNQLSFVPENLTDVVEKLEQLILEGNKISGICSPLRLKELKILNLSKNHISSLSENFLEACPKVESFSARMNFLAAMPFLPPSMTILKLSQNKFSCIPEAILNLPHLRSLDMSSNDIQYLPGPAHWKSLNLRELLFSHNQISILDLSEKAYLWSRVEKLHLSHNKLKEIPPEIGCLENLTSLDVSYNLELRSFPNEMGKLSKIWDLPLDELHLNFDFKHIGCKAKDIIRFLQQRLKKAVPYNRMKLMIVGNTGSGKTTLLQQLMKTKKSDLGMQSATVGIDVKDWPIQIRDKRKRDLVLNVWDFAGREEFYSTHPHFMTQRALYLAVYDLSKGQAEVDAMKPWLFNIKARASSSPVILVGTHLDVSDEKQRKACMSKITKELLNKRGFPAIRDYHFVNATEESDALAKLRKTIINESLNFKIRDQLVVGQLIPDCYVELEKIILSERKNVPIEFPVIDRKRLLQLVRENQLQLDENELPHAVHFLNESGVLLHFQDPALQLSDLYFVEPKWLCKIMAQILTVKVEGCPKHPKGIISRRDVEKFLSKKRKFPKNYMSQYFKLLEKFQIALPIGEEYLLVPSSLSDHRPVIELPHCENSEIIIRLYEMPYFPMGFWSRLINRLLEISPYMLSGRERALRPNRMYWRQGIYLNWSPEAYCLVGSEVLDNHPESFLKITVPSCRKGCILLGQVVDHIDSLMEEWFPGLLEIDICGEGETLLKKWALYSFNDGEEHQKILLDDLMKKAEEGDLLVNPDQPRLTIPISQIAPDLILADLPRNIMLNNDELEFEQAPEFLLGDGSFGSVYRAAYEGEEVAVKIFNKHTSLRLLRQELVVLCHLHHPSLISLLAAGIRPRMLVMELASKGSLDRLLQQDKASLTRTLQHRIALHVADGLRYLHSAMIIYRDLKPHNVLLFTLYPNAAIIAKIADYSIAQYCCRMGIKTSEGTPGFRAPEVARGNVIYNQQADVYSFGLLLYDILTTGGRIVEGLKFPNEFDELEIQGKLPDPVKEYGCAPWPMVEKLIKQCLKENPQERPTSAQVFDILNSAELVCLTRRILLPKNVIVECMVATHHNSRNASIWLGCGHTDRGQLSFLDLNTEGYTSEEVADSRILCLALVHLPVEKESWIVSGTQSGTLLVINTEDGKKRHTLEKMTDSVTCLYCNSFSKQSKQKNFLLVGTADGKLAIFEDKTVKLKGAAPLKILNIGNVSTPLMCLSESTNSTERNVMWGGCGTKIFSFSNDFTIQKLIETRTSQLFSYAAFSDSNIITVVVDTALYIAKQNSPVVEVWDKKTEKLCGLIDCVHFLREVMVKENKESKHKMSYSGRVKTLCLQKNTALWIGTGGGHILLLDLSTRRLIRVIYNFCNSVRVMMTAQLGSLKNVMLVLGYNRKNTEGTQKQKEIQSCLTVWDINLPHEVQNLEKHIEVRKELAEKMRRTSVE
T1 sequence (P49759 129-484 limits assumed): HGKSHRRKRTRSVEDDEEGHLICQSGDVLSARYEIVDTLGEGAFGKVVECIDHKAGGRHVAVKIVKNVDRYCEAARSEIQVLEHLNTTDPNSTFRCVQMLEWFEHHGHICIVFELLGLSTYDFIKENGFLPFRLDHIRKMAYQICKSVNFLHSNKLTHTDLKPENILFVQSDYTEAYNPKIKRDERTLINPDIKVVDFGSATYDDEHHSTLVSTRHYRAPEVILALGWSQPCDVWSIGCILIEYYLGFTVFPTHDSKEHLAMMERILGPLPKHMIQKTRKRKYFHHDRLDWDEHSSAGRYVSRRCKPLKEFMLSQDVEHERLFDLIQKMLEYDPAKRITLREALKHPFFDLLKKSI

As for `CCNc1cc(Nc2ccc(S(C)(=O)=O)cc2OC)nc2[nH]cc(Cl)c12` [Example 81, 3-chloro-N^4-ethyl-N^6-(2-methoxy-4-(methylsulfonyl)phenyl)-1H-pyrrolo[2,3-b]pyridine-4,6-diamine], the IC50 (on human GST-CLK1 (129-end); in assay [1]; against LRRK2 (G2019S)) was 301 to 1000 nM in each case.

For `COc1cc(S(C)(=O)=O)ccc1Nc1cc(NC(C)C)c2c(Cl)c[nH]c2n1` [Example 83, 3-chloro-N^4-isopropyl-N^6-(2-methoxy-4-(methylsulfonyl)phenyl)-1H-pyrrolo[2,3-b]pyridine-4,6-diamine], the concentration for half-maximal inhibition (IC50) (against human GST-CLK1 (129-end); in assay [1]; on LRRK2 (G2019S)) was 301 to 1000 nM each time.

With `COc1cc(S(=O)(=O)N2CCOCC2)ccc1Nc1cc(NC2CCCCC2)c2cc[nH]c2n1` [Example 16, N^4-cyclohexyl-N^6-(2-methoxy-4-(morpholinosulfonyl)phenyl)-1H-pyrrolo[2,3-b]pyridine-4,6-diamine], the concentration for half-maximal inhibition (IC50) (at human GST-CLK1 (129-end); in assay [1]; on LRRK2 (G2019S)) was 301 to 1000 nM each time.

With `CCNc1cc(Nc2ccc(C(=O)N3CCN(C(C)C)CC3)c3c2OCC3)nc2[nH]cc(C(F)(F)F)c12` [Example 254, (7-((4-(ethylamino)-3-(trifluoromethyl)-1H-pyrrolo[2,3-b]pyridin-6-yl)amino)-2,3-dihydrobenzofuran-4-yl)(4-isopropylpiperazin-1-yl)methanone], the IC50 (at human GST-CLK1 (129-end); in assay [1]; on LRRK2 (G2019S)) was less than 100 nM each time.

In the case of `CCCNc1cc(Nc2ccc(C(=O)N3CCOCC3)c3c2OCCO3)nc2[nH]cc(Cl)c12` [Example 58, (8-((3-chloro-4-(propylamino)-1H-pyrrolo[2,3-b]pyridin-6-yl)amino)-2,3-dihydrobenzo[b] [1,4]dioxin-5-yl)(morpholino) methanone], the IC50 was 301 to 1000 nM at human GST-CLK1 (129-end), 301 to 1000 nM in assay [1] and less than 100 nM against LRRK2 (G2019S).

As to `CCNc1cc(Nc2ccc(C(=O)N3CCOCC3)c3c2OCCO3)nc2[nH]cc(Cl)c12` [Example 57, (8-((3-chloro-4-(ethylamino)-1H-pyrrolo[2,3-b]pyridin-6-yl)amino)-2,3-dihydrobenzo[b] [1,4]dioxin-5-yl)(morpholino) methanone], the IC50 against human GST-CLK1 (129-end) was 301 to 1000 nM; in assay [1], 301 to 1000 nM; against LRRK2 (G2019S), less than 100 nM.

For the molecule `CCCNc1cc(Nc2ccc(C(=O)N3CCOCC3)c3c2OCCO3)nc2[nH]ccc12` [Example 4, morpholino(8-((4-(propylamino)-1H-pyrrolo[2,3-b]pyridin-6-yl)amino)-2,3-dihydrobenzo [b] [1,4]dioxin-5-yl)(morpholino) methanone 2,2,2-trifluoroacetate], the IC50 is 301 to 1000 nM against human GST-CLK1 (129-end), 301 to 1000 nM in assay [1] and less than 100 nM against LRRK2 (G2019S).

Turning to `CCNc1cc(Nc2ccc(C(=O)N3OCC[C@@H]3c3cc(F)cc(F)c3)c3c2OCC3)nc2[nH]cc(C(F)(F)F)c12` [Example 245, (R)-(3-(3,5-difluorophenyl)isoxazolidin-2-yl)(7-((4-(ethylamino)-3-(trifluoromethyl)-1H-pyrrolo[2,3-b]pyridin-6-yl)amino)-2,3-dihydrobenzofuran-4-yl)methanone], the IC50 (against human GST-CLK1 (129-end); in assay [1]; at LRRK2 (G2019S)) was 301 to 1000 nM throughout.

Take `COc1cc(S(=O)(=O)N2CCOCC2)ccc1Nc1cc(NCC(C)C)c2cc[nH]c2n1` [Example 14, N^4-isobutyl-N^6-(2-methoxy-4-(morpholinosulfonyl)phenyl)-1H-pyrrolo[2,3-b]pyridine-4,6-diamine]: the half-maximal inhibitory concentration (IC50) (on human GST-CLK1 (129-end); in assay [1]; at LRRK2 (G2019S)) was 301 to 1000 nM throughout.

With `CCNc1cc(Nc2ccc(S(=O)(=O)N3CCOCC3)cc2OC)nc2[nH]ccc12` [Example 11, N^4-ethyl-N^6-(2-methoxy-4-(morpholinosulfonyl)phenyl)-1H-pyrrolo[2,3-b]pyridine-4,6-diamine 2,2,2-trifluoroacetate], the IC50 against human GST-CLK1 (129-end) lay within 301 to 1000 nM; in assay [1], 301 to 1000 nM; against LRRK2 (G2019S), 101 to 300 nM.

Turning to `COc1cc(S(=O)(=O)N2CCOCC2)ccc1Nc1cc(NCCS(C)(=O)=O)c2cc[nH]c2n1` [Example 17, N^6-(2-methoxy-4-(morpholinosulfonyl)phenyl)-N^4-(2-(methylsulfonyl)ethyl)-1H-pyrrolo[2,3-b]pyridine-4,6-diamine], the IC50 (at human GST-CLK1 (129-end); in assay [1]; against LRRK2 (G2019S)) was 301 to 1000 nM each time.

Consider `CCNc1cc(Nc2ccc(C(=O)N3CCOCC3)c3c2OCCO3)nc2[nH]ccc12` [Example 3, (8-((4-(ethylamino)-1H-pyrrolo[2,3-b]pyridin-6-yl)amino)-2,3-dihydrobenzo[b] [1,4]dioxin-5-yl)(morpholino) methanone 2,2,2-trifluoroacetate], for which the figures for the IC50 (on human GST-CLK1 (129-end); in assay [1]; at LRRK2 (G2019S)) were 301 to 1000 nM, 301 to 1000 nM and 101 to 300 nM, respectively.

As to `COc1cc(S(C)(=O)=O)ccc1Nc1cc(NC2CC2)c2c(Cl)c[nH]c2n1` [Example 84, 3-chloro-N^4-cyclopropyl-N^6-(2-methoxy-4-(methylsulfonyl)phenyl)-1H-pyrrolo[2,3-b]pyridine-4,6-diamine], the IC50 (at human GST-CLK1 (129-end); in assay [1]; against LRRK2 (G2019S)) was 301 to 1000 nM in each case.

Turning to `O=C(c1ccc(Nc2cc(NC3CC3)c3cc[nH]c3n2)c2c1OCCO2)N1CCOCC1` [Example 7, (8-((4-(cyclopropylamino)-1H-pyrrolo[2,3-b]pyridin-6-yl)amino)-2,3-dihydrobenzo [b] [1,4]dioxin-5-yl)(morpholino) methanone], the results for the half-maximal inhibitory concentration (IC50) (at human GST-CLK1 (129-end); in assay [1]; on LRRK2 (G2019S)) were 301 to 1000 nM, 301 to 1000 nM and less than 100 nM, respectively.

Regarding `CCCNc1cc(Nc2ccc(S(C)(=O)=O)cc2OC)nc2[nH]cc(Cl)c12` [Example 82, 3-chloro-N^6-(2-methoxy-4-(methylsulfonyl)phenyl)-N^4-propyl-1H-pyrrolo[2,3-b]pyridine-4,6-diamine], the IC50 (against human GST-CLK1 (129-end); in assay [1]; on LRRK2 (G2019S)) was 301 to 1000 nM throughout.

For the molecule `CNc1cc(Nc2ccc(C(=O)N3CCOCC3)c3c2OCCO3)nc2[nH]ccc12` [Example 2, (8-((4-(Methylamino)-1H-pyrrolo[2,3-b]pyridine-6-yl)amino)-2,3-dihydrobenzo[b] [1,4]dioxin-5-yl)(morpholino) methanone], the results for the IC50 (against human GST-CLK1 (129-end); in assay [1]; against LRRK2 (G2019S)) were 301 to 1000 nM, 301 to 1000 nM and less than 100 nM, respectively.

As to `CCNc1cc(Nc2ccc(S(=O)(=O)N3CCC(N4CCOCC4)CC3)cc2OC)nc2[nH]cc(Cl)c12` [Example 74, 3-chloro-N^4-ethyl-N^6-(2-methoxy-4-((morpholinopiperidin-1-yl)sulfonyl)phenyl)-1H-pyrrolo[2,3-b]pyridine-4,6-diamine], the concentration for half-maximal inhibition (IC50) at human GST-CLK1 (129-end) was 301 to 1000 nM; in assay [1], 301 to 1000 nM; on LRRK2 (G2019S), 101 to 300 nM.
